According to publication PMC12906330 (SLAS discovery : advancing life sciences R & D, 2025):
pIC50: −log10 of the molar value.

Assays:
Format in all cases: biochemical
[1] = target: T1, FlgE (flagellar hook protein) (Treponema denticola, UniProt Q9RQB6); experiment: ELISA of Lal crosslinking between purified FlgE subunits, dose-response
T1 sequence (Q9RQB6 11-454): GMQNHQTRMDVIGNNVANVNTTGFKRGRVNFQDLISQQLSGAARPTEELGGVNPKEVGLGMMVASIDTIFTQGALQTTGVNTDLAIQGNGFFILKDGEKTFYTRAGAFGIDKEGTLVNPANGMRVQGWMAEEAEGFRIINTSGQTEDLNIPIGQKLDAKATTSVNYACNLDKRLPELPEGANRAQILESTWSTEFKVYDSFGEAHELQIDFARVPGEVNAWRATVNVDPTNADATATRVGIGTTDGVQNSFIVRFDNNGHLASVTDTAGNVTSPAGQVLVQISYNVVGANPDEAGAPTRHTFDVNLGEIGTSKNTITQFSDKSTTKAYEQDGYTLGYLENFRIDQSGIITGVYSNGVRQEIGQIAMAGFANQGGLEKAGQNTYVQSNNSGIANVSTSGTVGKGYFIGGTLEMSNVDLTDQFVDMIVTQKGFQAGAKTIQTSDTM

[2] = target: T1, FlgE (flagellar hook protein); experiment: ELISA of Lal crosslinking between purified FlgE subunits
[3] = target: T1, FlgE (flagellar hook protein); experiment: ELISA of Lal crosslinking between purified FlgE subunits, dose-response; remark: listed apart in the source

Molecule `Oc1c(Cl)cc(Cl)c(Cl)c1Cc1c(O)c(Cl)cc(Cl)c1Cl` [hexachlorophene] has a pIC50 [1] of 4.32.
`C=CCc1ccc(O)c(-c2ccc(O)c(CC=C)c2)c1` [honokiol] was tested, and the pIC50 [2] was 3.93.
In the case of `COc1cc(C(=O)NS(=O)(=O)c2ccccc2C)ccc1Cc1cn(C)c2ccc(NC(=O)OC3CCCC3)cc12` [zafirlukast], the pIC50 [3] was 4.04.
